Data on 7 compounds can be found in patent US9200260B2, “Compositions and methods for the transfer of a hexosamine to a modified nucleotide in a nucleic acid” (New England Biolabs, Inc., priority 2012, dated 2015).

For assay [1], the target named is T1, wild-type BGT (T4-β-glucosyltransferase) (Enterobacteria phage T4, UniProt P04547).
T1 construct: purchased New England Biolabs, Inc. (Ipswich, Mass.)
T1 sequence (P04547 1-351): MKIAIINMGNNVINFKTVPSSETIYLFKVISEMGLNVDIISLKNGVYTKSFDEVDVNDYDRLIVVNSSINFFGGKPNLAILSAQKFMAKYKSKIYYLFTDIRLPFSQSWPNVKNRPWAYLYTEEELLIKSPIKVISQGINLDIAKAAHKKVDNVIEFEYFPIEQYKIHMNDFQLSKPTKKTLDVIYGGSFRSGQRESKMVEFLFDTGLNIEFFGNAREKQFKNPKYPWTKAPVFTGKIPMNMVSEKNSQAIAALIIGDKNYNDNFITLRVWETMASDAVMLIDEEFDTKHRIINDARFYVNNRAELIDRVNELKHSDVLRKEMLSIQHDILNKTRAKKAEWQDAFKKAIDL
Description: Enzymatic transfer of UDP-sugars to BGT DNA by wild-type BGT (protection from MfeI cleavage, agarose gel). The format is biochemical. The note with it: for UDP-Sugar concentration required for complete protection of BGT DNA from MfeI cleavage: enzyme BGT, 100 ng, 0.25 μg BGT DNA, 37° C. 1 h, >> incomplete protection at highest tested concentration, n.a. no activity. As to the method:
(§1) After glycosylation, the glucosyltransferase was heat-inactivated by incubating for 10 minutes at 70° C. To analyze the enzyme-catalyzed transfer efficiency, samples were incubated with 1 μL (20 units) MfeI for 1 hour at 37° C. Reaction products were separated by agarose gel electrophoresis and stained with ethidium bromide to check for complete protection of BGT DNA against MfeI cleavage. […]
(§2) BGT DNA contains 5-hmC instead of cytosine and was produced from phage deficient in α- and β-glucosyltransferases. The degree of glycosylation of BGT DNA was determined by incubating the samples with the restriction endonuclease MfeI.
(§3) Top row: wild-type BGT; middle row: BGT/Y261L; bottom row: wild-type AGT. […] Then the glucosyltransferase was killed by heat at 70° C., and 1 μL (20 units) MfeI was added and incubated at 37° C. for 1 hour. The results were analyzed by agarose gel electrophoresis. Concentration values are given in mM.
(§4) Top row: wild-type BGT; middle row: BGT/Y261L; bottom row: wild-type AGT. […] Various concentrations of each substrate (as indicated) were incubated with 0.25 μg BGT DNA in the presence of 100 ng glucosyltransferase at 37° C. for 1 hour. Then the glucosyltransferase was killed by heat at 70° C. for 10 minutes, and 1 μL (20 units) MfeI was added and incubated at 37° C. for 1 hour. The results were analyzed by agarose gel electrophoresis. Concentration values are given in mM.

In assay [2] the target is T2, wild-type AGT (T4 phage α-glucosyltransferase) (Enterobacteria phage T4, UniProt P04519).
T2 construct: purchased New England Biolabs, Inc. (Ipswich, Mass.)
T2 sequence (P04519 whole entry): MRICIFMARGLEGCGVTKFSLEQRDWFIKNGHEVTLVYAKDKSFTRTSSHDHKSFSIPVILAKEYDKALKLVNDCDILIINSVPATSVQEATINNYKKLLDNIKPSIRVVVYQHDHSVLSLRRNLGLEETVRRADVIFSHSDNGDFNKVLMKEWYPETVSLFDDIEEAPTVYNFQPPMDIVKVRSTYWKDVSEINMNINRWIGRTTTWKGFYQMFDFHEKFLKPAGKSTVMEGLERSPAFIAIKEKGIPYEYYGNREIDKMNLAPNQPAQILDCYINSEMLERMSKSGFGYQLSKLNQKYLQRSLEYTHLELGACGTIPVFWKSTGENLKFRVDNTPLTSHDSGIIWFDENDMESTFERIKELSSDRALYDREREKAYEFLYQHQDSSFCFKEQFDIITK
Description: Enzymatic transfer of UDP-sugars to BGT DNA by wild-type AGT (protection from MfeI cleavage, agarose gel). The class given is biochemical. Conditions: for UDP-Sugar concentration required for complete protection of BGT DNA from MfeI cleavage: enzyme AGT, 100 ng, 0.25 μg BGT DNA, 37° C. 1 h, >> incomplete protection at highest tested concentration, n.a. no activity. As to the method:
After glycosylation, the glucosyltransferase was heat-inactivated by incubating for 10 minutes at 70° C. To analyze the enzyme-catalyzed transfer efficiency, samples were incubated with 1 μL (20 units) MfeI for 1 hour at 37° C. Reaction products were separated by agarose gel electrophoresis and stained with ethidium bromide to check for complete protection of BGT DNA against MfeI cleavage.
Nucleic Acids Res., 13, 7551-7568; Szwagierczak, A., Bultmann, S., Schmidt, C. […] Nucleic Acids Res., 38, e181].
as §2, §3, §4

Assay [3] addresses T3, BGT/Y261L (Enterobacteria phage T4, UniProt P04547, Y261L). The format is biochemical. Details: purchased New England Biolabs, Inc. (Ipswich, Mass.). Conditions: for UDP-Sugar concentration required for complete protection of BGT DNA from MfeI cleavage: enzyme BGT/Y261L, 100 ng, 0.25 μg BGT DNA, 37° C. 1 h, >> incomplete protection at highest tested concentration, n.a. no activity; for transfer efficiency by BGT/Y261L (in words): compared with natural UDP-Glc. As to the method: as §1, §2, §3, §4

Assay [4] deals with T3, BGT/Y261L. Conditions: 0.02 to 10.0 mM in the presence of 40 μM UDP-Glc; UDP-Glc 0.02 to 20.0 mM in the presence of 5 mM compound. Here is the method:
(§5) After adding 100 ng of wild-type BGT or BGT/Y261L, the reaction mixtures were incubated at 37° C. for 1 hour in 1× NEBuffer 4. After glycosylation, the glucosyltransferase was heat-inactivated by incubating for 10 minutes at 70° C. […] Reaction products were separated by electrophoresis on agarose gel and stained with ethidium bromide.
(§6) Concentration values are given in mM.

In assay [5] the target is T4, wild-type BGT (Enterobacteria phage T4, UniProt P04547). The note with it: 0.02 to 10.0 mM in the presence of 40 μM UDP-Glc; UDP-Glc 0.02 to 20.0 mM in the presence of 5 mM compound. As to the method:
as §5, §6

Assay [6] has as its target AGT (Enterobacteria phage T4, UniProt P04519).
Assay [7] concerns the target T4, wild-type BGT. Conditions: cited from earlier work.

Where only a bound is given, the exact number is not on record here.

T3 sequence (P04547 whole entry Y261L): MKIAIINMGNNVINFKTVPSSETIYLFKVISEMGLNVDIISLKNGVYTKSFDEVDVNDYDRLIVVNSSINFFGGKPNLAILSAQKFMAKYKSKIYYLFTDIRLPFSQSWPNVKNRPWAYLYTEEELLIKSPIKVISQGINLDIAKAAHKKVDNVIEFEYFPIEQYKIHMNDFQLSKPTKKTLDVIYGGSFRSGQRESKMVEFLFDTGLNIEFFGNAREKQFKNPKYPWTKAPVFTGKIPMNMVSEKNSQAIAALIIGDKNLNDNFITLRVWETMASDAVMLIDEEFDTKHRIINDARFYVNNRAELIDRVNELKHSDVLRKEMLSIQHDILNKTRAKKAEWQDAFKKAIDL
Sequence of AGT (P04519 whole entry): as the sequence (P04519 whole entry) above

Regarding `N[C@H]1[C@@H](OP(=O)(O)OP(=O)(O)OC[C@H]2O[C@@H](n3ccc(=O)[nH]c3=O)[C@H](O)[C@@H]2O)O[C@H](CO)[C@@H](O)[C@@H]1O` [Compound 4, UDP-2-glucosamine], the “UDP-Sugar concentration required for complete protection of BGT DNA from MfeI cleavage” value (shortened to “UDP-Sugar concentration required”) is on record as 0.03 mM in assay [1], >>1.25 mM in assay [2] and 0.03 mM in assay [3].

Take `NCC1OC(OP(=O)(O)OP(=O)(O)OC[C@H]2O[C@@H](n3ccc(=O)[nH]c3=O)[C@H](O)[C@@H]2O)C(O)C(O)C1O` (stereo partly shown) [Compound 3, UDP-6-glucosamine]: the results for the “UDP-Sugar concentration required” value in assay [1], in assay [2] and in assay [3] were 0.02 mM, >>5.0 mM and 0.31 mM, respectively. Besides, the “transfer efficiency by BGT/Y261L, lower than natural UDP-Glc” value in assay [3] (relative to natural UDP-Glc) is “about 15 fold”.

With `[N-]=[N+]=NC1C(OP(=O)(O)OP(=O)(O)OCC2OC(n3ccc(=O)[nH]c3=O)C(O)C2O)OC(CO)C(O)C1O` (stereo not shown) [Compound 2, UDP-2-Azido-Glc], the “transfer efficiency by wild-type BGT (in words)” value in assay [1] (compared with natural UDP-Glc) is reported as “None of the three tested enzymes efficiently transferred”. Moreover, the “transfer efficiency by wild-type AGT (in words)” value in assay [2] is recorded as “None of the three tested enzymes efficiently transferred”. In addition, in assay [4], the “inhibition of BGT/Y261L (mode, in words)” value is “competitive inhibitor”. Further, in assay [5], the “inhibition of wild-type BGT (mode, in words)” value is “competitive inhibitor”. Further, the “inhibition of AGT (in words)” value in assay [6] is on record as “not for AGT”. For the same compound, in assay [3], the “transfer efficiency by BGT/Y261L (in words)” value is listed as “None of the three tested enzymes efficiently transferred”.

For UDP-2-Keto-Glc [Compound 5], the “UDP-Sugar concentration required” value in assay [1] and in assay [3] was >>4.0 mM each time. In addition, the “transfer by BGT/Y261L at the highest tested concentration” value in assay [3] (4 mM) was “not detected”.

Consider `[N-]=[N+]=NCC1OC(OP(=O)(O)OP(=O)(O)OC[C@H]2O[C@@H](n3ccc(=O)[nH]c3=O)[C@H](O)[C@@H]2O)C(O)C(O)C1O` (stereo partly shown) [Compound 1, UDP-6-Azido-Glc, reference compound], for which the “UDP-Sugar concentration required” value in assay [1] is 0.04 mM. Also, the “decrease in the reaction rate compared to the native UDP-Glc cofactor” value in assay [7] was approximately 6 fold. Further, in assay [3], the “transfer efficiency by BGT/Y261L (in words)” value is “cannot efficiently transfer” and the “UDP-Sugar concentration required” value is recorded as >>1.0 mM.

With `CC(=O)N[C@H]1[C@@H](OP(=O)(O)OP(=O)(O)OC[C@H]2O[C@@H](n3ccc(=O)[nH]c3=O)[C@H](O)[C@@H]2O)O[C@H](CO)[C@@H](O)[C@@H]1O` [UDP-GlcNAc, UDP-N-acetyl-D-glucosamine, reference compound], the figures for the “UDP-Sugar concentration required” value in assay [1], in assay [2] and in assay [3] were 25 mM, >>20.0 mM and 2.5 mM, respectively. For the same compound, the “transfer by BGT/Y261L more efficient than by wild-type BGT” value in assay [3] (BGT/Y261L versus wild-type BGT) stood at 10 fold. For the same compound, the “transfer efficiency by the Y261L enzyme, lower compared to UDP-2-GlcN 4” value in assay [3] (relative to UDP-2-GlcN 4) is “approximately 100 fold”.

With `O=C(O)[C@H]1O[C@H](OP(=O)(O)OP(=O)(O)OC[C@H]2O[C@@H](n3ccc(=O)[nH]c3=O)[C@H](O)[C@@H]2O)[C@H](O)[C@@H](O)[C@@H]1O` [UDP-GlcUA, UDP-Glucuronic acid, reference compound], the “UDP-Sugar concentration required” value in assay [1] is 1.0 mM; in assay [2], >>20.0 mM; in assay [3], >>10.0 mM.
